{"source": "patent US20230042198A1", "about": "“Methods and Compositions for Modulationg Heterochromatin Dysfunction, Genomic Instability, and Associate Conditions” (La Jolla Institute for Immunology, priority 2019, published 2023)", "test_system": "IMR90 fibroblasts, CD4+ and CD8+ T cells, CD34+ cells", "test": "Senescence and heterochromatic hypomethylation with cell division/aging, rescue with Vitamin C", "assay_type": "cell-based, human", "conditions": "activator of TET proteins", "from_the_text": "Example 9: The inventors investigated heterochromatin dysfunction as a function of both cellular age and number of cell divisions, using multiple cellular systems: IMR90 fibroblasts, freshly isolated CD4+ and CD8+ T cells from young and old human donors, and commercially available CD34^+ cells (enriched for hematopoietic precursor cells) from human newborns (cord blood) and older adults.\nTet1/2/3 triple-foxed (Tet1/2/3 Tfl) RosaYFP^LSL or RosaYFP^LSL mice were used, left […] with tamoxifen; (ii) DNMT3a (or multiple Dnmt) foxed mice, also bearing the RosaYFP^LSL reporter and left […] with tamoxifen. Mouse fibroblasts have a longer passage time to senescence, so IMR90 human fibroblasts in which partial TET or DNMT loss-of-function was induced by genome editing were also used."}
{"smiles": "O=C1O[C@H]([C@@H](O)CO)C(O)=C1O", "note": "[Vitamin C]", "values": [{"measurement": "hypomethylation observed with cell division and/or aging", "result": "can be rescued"}, {"measurement": "time to senescence", "result": "can be delayed"}]}
